42 compounds from patent publication US11945806B2, “Stabilization of amyloidogenic immunoglobulin light chains” (The Scripps Research Institute, priority 2019, dated 2024) can be followed below.

In this test the target is WIL-FL (Homo sapiens, UniProt P01721). Put plainly: Unlabeled LC Protease Sensitivity Assay (proteinase K). It counts as biochemical. The note with it: small molecule 10 μM, WIL-FL 5 μM, proteinase K 50 nM, 2 hours at 37° C. On the procedure: Unlabeled LC Protease Sensitivity Assay. WIL-FL (5 μM) in phosphate-buffered saline (PBS, pH 7.4)+0.02% Pluronic F-127 was incubated with proteinase K (50 nM) with small molecule (10 μM) in 1% DMSO vehicle, or vehicle alone. After 2 hours at 37° C., reactions were quenched with 2 mM phenylmethyl sulfonyl fluoride in methanol and centrifuged at 14,000 rpm for 2 minutes. Remaining WIL-FL was quantified by injecting 10 μL of the supernatant into a Waters Acquity H-Class Bio-UPLC (ultra performance liquid chromatography) instrument equipped with a BEH200 analytical size-exclusion column (1.7 μm, 4.6×150 mm) under isocratic conditions (0.2 mL/min, PBS+1 mM EDTA, 2400 psi backpressure, 15 min), monitoring absorbance at 280 nm. Activity of each compound is given as fold protection from protease=(A_compound−A_vehicle)/(A_no_protease−A_vehicle), where each “A” corresponds to peak integration of the respective treatment.
As for `CC(C)CC1NC(=O)N(CC(=O)Nc2ccc(C(F)(F)F)cc2)C1=O` (single isomer, unassigned) [Compound 22], the “Protection (fold protection of LC from protease)” value was “A (A < 0.3))”.
The entry for `CC(C)CC1NC(=O)N(CC(=O)Nc2ccc(C(F)(F)F)cc2)C1=O` (single isomer, unassigned) [Compound 23] is “A (A < 0.3))”; for `CCN(CC)c1ccc2c(C(F)(F)F)cc(=O)oc2c1` [Compound 24] it is “A (A < 0.3))”.
The entry for `CCN(CC)c1ccc2c(C)cc(=O)[nH]c2c1` [Compound 25, 7-(diethylamino)-4-methylquinolin-2(1H)-one] is “A (A < 0.3))”; for `CCN(CC)c1ccc2cc(C#N)c(=N)oc2c1` [Compound 26, 7-(diethylamino)-2-imino-2H-chromene-3-carbonitrile] it is “A (A < 0.3))”; for `CCN(CC)c1ccc2c(O)cc(=O)oc2c1` [Compound 27, 7-(diethylamino)-4-hydroxy-2H-chromen-2-one] it is “A (A < 0.3))”.
The entry for `Cc1cc(=O)oc2cc(NCc3ccccc3)ccc12` [Compound 28, 7-(benzylamino)-4-methyl-2H-chromen-2-one] is “A (A < 0.3))”; for `Cc1cc(=O)oc2cc(NCc3ccoc3)ccc12` [Compound 29, 7-((furan-3-ylmethyl)amino)-4-methyl-2H-chromen-2-one] it is “A (A < 0.3))”.
Consider `Cc1cc(=O)oc2cc(NCCCc3ccccc3)ccc12` [Compound 30, 4-methyl-7-((3-phenylpropyl)amino)-2H-chromen-2-one], for which the “Protection (fold protection of LC from protease)” value is on record as “A (A < 0.3))”.
The entry for `CCN(CCCc1ccccc1)c1ccc2c(C)cc(=O)oc2c1` [Compound 31, 7-(ethyl(3-phenylpropyl)amino)-4-methyl-2H-chromen-2-one] is “A (A < 0.3))”; for `CCC(C)Oc1ccc2c(C)cc(=O)oc2c1` (stereo not drawn) [Compound 32, 7-(sec-butoxy)-4-methyl-2H-chromen-2-one] it is “A (A < 0.3))”; for `CCCOc1ccc2c(C)cc(=O)oc2c1` [Compound 33, 4-methyl-7-propoxy-2H-chromen-2-one] it is “A (A < 0.3))”.
The entry for `Cc1cc(=O)oc2cc(OCCN)ccc12` [Compound 34, 7-(2-aminoethoxy)-4-methyl-2H-chromen-2-one] is “A (A < 0.3))”; for `CCN(Cc1ccccc1)c1ccc2c(C)cc(=O)oc2c1` [Compound 35, 7-(benzyl(ethyl)amino)-4-methyl-2H-chromen-2-one] it is “A (A < 0.3))”.
Turning to `Cc1cc(=O)oc2cc(N3CCCC3)ccc12` [Compound 36, 4-methyl-7-(pyrrolidin-1-yl)-2H-chromen-2-one], the “Protection (fold protection of LC from protease)” value is recorded as “A (A < 0.3))”.
The value for `CCN(CCc1ccccc1)c1ccc2c(C)cc(=O)oc2c1` [Compound 37, 7-(ethyl(phenethyl)amino)-4-methyl-2H-chromen-2-one] was “A (A < 0.3))”.
The entry for `Cc1cc(=O)oc2cc(NC(C)c3ccccc3)ccc12` (stereo not drawn) [Compound 39, 4-methyl-7-((1-phenylethyl)amino)-2H-chromen-2-one] is “A (A < 0.3))”; for `Cc1cc(=O)oc2cc(NCCc3ccccc3)ccc12` [Compound 40, 4-methyl-7-(phenethylamino)-2H-chromen-2-one] it is “A (A < 0.3))”.
The value for `CCC(Oc1ccc2c(C)cc(=O)oc2c1)c1ccccc1` (stereo not drawn) [Compound 41, 4-methyl-7-(1-phenylpropoxy)-2H-chromen-2-one] was “A (A < 0.3))”.
In the case of `Cc1cc(=O)oc2cc(OC(c3ccccc3)c3ccccc3)ccc12` [Compound 42, 7-(benzhydryloxy)-4-methyl-2H-chromen-2-one], the “Protection (fold protection of LC from protease)” value is “A (A < 0.3))”.
Consider `Cc1cc(=O)oc2cc(OCC(C)c3ccccc3)ccc12` (stereo not drawn) [Compound 43, 4-methyl-7-(2-phenylpropoxy)-2H-chromen-2-one], for which the “Protection (fold protection of LC from protease)” value is “B (3 ≤ B < 0.6)”.
Consider `Cc1cc(=O)oc2cc(OC(C)c3ccc(F)cc3)ccc12` (stereo not drawn) [Compound 44, 7-(1-(4-fluorophenyl)ethoxy)-4-methyl-2H-chromen-2-one], for which the “Protection (fold protection of LC from protease)” value is recorded as “A (A < 0.3))”.
The entry for `Cc1ccccc1C(C)Oc1ccc2c(C)cc(=O)oc2c1` (stereo not drawn) [Compound 45, 4-methyl-7-(1-(o-tolyl)ethoxy)-2H-chromen-2-one] is “A (A < 0.3))”; for `Cc1cc(=O)oc2cc(OCCC(C)c3ccccc3)ccc12` (stereo not drawn) [Compound 46, 4-methyl-7-(3-phenylbutoxy)-2H-chromen-2-one] it is “A (A < 0.3))”.
The entry for `Cc1cc(=O)oc2cc(OC(C)Cc3ccccc3)ccc12` (stereo not drawn) [Compound 47, 4-methyl-7-((1-phenylpropan-2-yl)oxy)-2H-chromen-2-one] is “A (A < 0.3))”.
With `Cc1cc(=O)oc2cc(N3CCCCC3)ccc12` [Compound 48, 4-methyl-7-(piperidin-1-yl)-2H-chromen-2-one], the “Protection (fold protection of LC from protease)” value is reported as “A (A < 0.3))”.
The entry for `Cc1cc(=O)oc2cc(OC(C)c3ccccc3F)ccc12` (stereo not drawn) [Compound 49, 7-(1-(2-fluorophenyl)ethoxy)-4-methyl-2H-chromen-2-one] is “A (A < 0.3))”.
The value for `Cc1cc(=O)oc2cc(OC(C)c3c(F)cccc3F)ccc12` (stereo not drawn) [Compound 51, 7-(1-(2,6-difluorophenyl)ethoxy)-4-methyl-2H-chromen-2-one] was “A (A < 0.3))”; that for `CCN(CC)c1ccc2c(C)cc(=O)n(C)c2c1` [Compound 52, 7-(diethylamino)-1,4-dimethylquinolin-2(1H)-one] was “A (A < 0.3))”.
As to `CCN(CC)c1ccc2c(C)c(CCO)c(=O)oc2c1` [Compound 53, 7-(diethylamino)-3-(2-hydroxyethyl)-4-methyl-2H-chromen-2-one], the “Protection (fold protection of LC from protease)” value is reported as “A (A < 0.3))”.
The value for `CCN(CC)c1ccc2c(C)c(CC(=O)O)c(=O)oc2c1` [Compound 54, 2-(7-(diethylamino)-4-methyl-2-oxo-2H-chromen-3-yl)acetic acid] was “A (A < 0.3))”.
Consider `CCN(CC)c1ccc2c(C)c(CC(=O)NCCc3ccccc3)c(=O)oc2c1` [Compound 55, 2-(7-(diethylamino)-4-methyl-2-oxo-2H-chromen-3-yl)-N-phenethylacetamide], for which the “Protection (fold protection of LC from protease)” value was “A (A < 0.3))”.
Consider `CCN(CC)c1ccc2c(C)c(CC(=O)NCCCc3ccccc3)c(=O)oc2c1` [Compound 56, 2-(7-(diethylamino)-4-methyl-2-oxo-2H-chromen-3-yl)-N-(3-phenylpropyl)acetamide], for which the “Protection (fold protection of LC from protease)” value is given as “A (A < 0.3))”.
The entry for `CCN(CC)c1ccc2c(C)c(CC(=O)NCCCCc3ccccc3)c(=O)oc2c1` [Compound 57, 2-(7-(diethylamino)-4-methyl-2-oxo-2H-chromen-3-yl)-N-(4-phenylbutyl)acetamide] is “A (A < 0.3))”; for `CCN(CC)c1ccc2c(C)c(CC(=O)NCCN(C)C)c(=O)oc2c1` [Compound 58, 2-(7-(diethylamino)-4-methyl-2-oxo-2H-chromen-3-yl)-N-(2-(dimethylamino)ethyl)acetamide] it is “A (A < 0.3))”; for `CCN(CC)c1ccc2c(C)c(CC(=O)NCCCN(C)C)c(=O)oc2c1` [Compound 59, 2-(7-(diethylamino)-4-methyl-2-oxo-2H-chromen-3-yl)-N-(3-(dimethylamino)propyl)acetamide] it is “A (A < 0.3))”.
For `CCN(CC)c1ccc2c(C)c(CC(=O)NC)c(=O)oc2c1` [Compound 60, 2-(7-(diethylamino)-4-methyl-2-oxo-2H-chromen-3-yl)-N-methylacetamide], the “Protection (fold protection of LC from protease)” value is listed as “A (A < 0.3))”.
The value for `CCN(CC)c1ccc2c(C)c(CC(=O)N(C)C)c(=O)oc2c1` [Compound 61, 2-(7-(diethylamino)-4-methyl-2-oxo-2H-chromen-3-yl)-N,N-dimethylacetamide] was “A (A < 0.3))”; that for `CCN(CC)c1ccc2c(C)c(CCC(=O)O)c(=O)oc2c1` [Compound 62, 3-(7-(diethylamino)-4-methyl-2-oxo-2H-chromen-3-yl)propanoic acid] was “A (A < 0.3))”; that for `CCN(CC)c1ccc2c(C)c(CCC(=O)NCCc3ccccc3)c(=O)oc2c1` [Compound 64, 3-(7-(diethylamino)-4-methyl-2-oxo-2H-chromen-3-yl)-N-phenethylpropanamide] was “A (A < 0.3))”.
The entry for `CCN(CC)c1ccc2c(C)c(CCC(=O)NC)c(=O)oc2c1` [Compound 66, 3-(7-(diethylamino)-4-methyl-2-oxo-2H-chromen-3-yl)-N-methylpropanamide] is “A (A < 0.3))”.
The value for `CCN(CC)c1ccc2c(C)c(CCC(=O)NCCCN(C)C)c(=O)oc2c1` [Compound 68] was “A (A < 0.3))”.
